Columns and labels:
[1] = tested on: proinsulin complex formation; test: Inhibition of ER to Golgi trafficking: proinsulin disulfide linked HMW complex formation; format: cell-based; conditions: BFA treatment; with or without cycloheximide
Procedure: Also, it is contemplated that increased proinsulin synthesis predisposes to oligomer and HMW complex formation. To test the notion that increased proinsulin expression, as in T2D, may exacerbate abnormal disulfide formation, the effect of brefeldin A (BFA), which promotes retrograde COP1 trafficking from the cis-Golgi to the ER to prevent export of secretory proteins to the Golgi, and thus increasing their concentration in the ER, was tested.

mouse pancreatic islets = test: Proinsulin disulfide-linked / HMW complexes in murine islets, SDS-PAGE immunoblot (CCI-17); format: cell-based
Procedure: Mouse pancreatic islet isolation: Mice were euthanized by CO2 narcosis as per an approved institutional animal protocol. The pancreas was rapidly excised, minced in ice-cold PBS, and digested in 4 mL of Collagenase P (Roche) 1.5 mg/mL in Hank's Balanced Salt Solution containing calcium and magnesium, in a shaking water bath for 30 min at 37° C. The digestion was terminated in 40 mL ice-cold PBS (—Ca/—Mg) and the digested tissue washed twice in this buffer. The sedimented tissue digest was then overlaid with 3 mL Histopaque-1077 and further overlayed with 6 mL ice cold PBS (—Ca/—Mg) before centrifugation (3000 rpm for 20 min at 10° C. with no brake) and transfer of the midlayer of the Histopaque gradient to a 15 ml tube for two further washes in ice-cold PBS. Finally, the sedimented tissue was transferred to a petri dish in ice-cold RPMI-1640 buffer and islets hand-picked to purity. In experiments involving drug or compound treatment, the islets were finally recovered overnight in RPMI-1640 supplemented with 10% fetal bovine serum (FBS), 10 mM HEPES pH 7.35, 1 mM sodium pyruvate and 0.05 mM beta-mercaptoethanol, in a humidified 5% CO2 incubator at 37° C. For some experiments, islets were snap frozen in liquid nitrogen and stored frozen prior to analysis.
(§1) Lysis of cells or islets for SDS-PAGE and electrotransfer: After removal of media, cells were washed once with ice-cold PBS and lysed in RIPA buffer (10 mM Tris pH 7.4, 150 mM NaCl, 0.1% SDS, 1% NP40, 2 mM EDTA) plus protease inhibitor/phosphatase inhibitor cocktail (Sigma-Aldrich) or directly in Laemmli gel sample buffer. Lysates in RIPA buffer were immediately spun at 10,000 rpm for 10 min at 4° C. and the supernatants analyzed further or stored at −80° C. Islets that had been quick frozen were placed on ice and RIPA buffer containing protease inhibitor cocktail and phosphatase inhibitor was added. Lysis was carried out by gently pipetting or by syringe through a 30G needle. Total protein concentration in the lysate was determined by BCA or Bramhall assay, and 5-10 μg of samples prepared in SDS sample were resolved by SDS-PAGE in 4-12% Bis-Tris NuPAGE gels (Invitrogen) at 200 V for 30 min. Nonreducing gels were incubated in a solution containing 20 mM dithiothreitol (DTT) for 10 min at room temperature prior to electrotransfer.
(§2) Immunoblotting: Transfer membranes were rinsed once in TBST (15 mM Tris, 150 mM NaCl, 0.1% Tween-20), blocked using TST plus 5% BSA for 1 h at room temperature, and then washed four times (5 min each) in TBST. Primary antibody and secondary antibodies were diluted in TBST and each of […] incubations was 1 h at room temperature followed by 4 washes in TBST. On occasion, primary antibodies were incubated overnight at 4° C. Secondary antibodies were all HRP-conjugates. Development of immunoblots used enhanced chemiluminescence (Immobilon, Millipore, or SuperSignal West Pico PLUS, Thermo Fisher Scientific) with images captured using a Fotodyne gel imager.
Islet Isolation: Islets were isolated by collagenase P (Roche) perfusion as described following by histopaque-1077 (Sigma-Aldrich, Inc. St. Louis) gradient purification. Islets were handpicked and studied directly or after overnight culture in RPMI 1640 medium (Corning 10-040-CV) supplemented with 10% FBS, 1% penicillin/streptomycin, 100 μg/m1 primocin, 10mM Hepes, and 1mM sodium pyruvate.
Islet Western Blotting: Isolated islets were lysed in RIPA buffer (10 mM Tris pH 7.4, 150 mM NaCl, 0.1% SDS, 1% NP-40, 2mM EDTA) with protease and phosphatase inhibitors (Fisher Scientific) on ice for 10 min and lysates were collected after centrifugation at 4° C. for 10 min at 12000 g. Samples were prepared in Laemmli sample buffer without (non-reducing) or with (reducing) 5% β-mercaptoethanol. After boiling for 5 min, samples were analyzed by SDS-PAGE (4-12% Bis-Tris gel, (Bio-Rad Laboratories, Inc.)) and transferred to nitrocellulose membranes (Bio-Rad Laboratories, Inc.). […]

INS1E cells = test: Proinsulin disulfide-linked complexes in INS1E cells, nonreducing/reducing SDS-PAGE and immunoblotting (mAb CCI-17); format: cell-based, rat; conditions: INS1E cells
Procedure: HEK293T human cells lines were cultured in DMEM supplemented with 10% FBS and penicillin/streptomycin.
as §1, with “Islets that had been quick frozen were placed on ice and RIPA buffer containing protease inhibitor cocktail and phosphatase inhibitor was added.” left out, “Total protein concentration in the lysate was determined by BCA or Bramhall assay, and 5-10 μg of samples prepared in SDS sample were resolved by SDS-PAGE in 4-12% Bis-Tris NuPAGE gels (Invitrogen) at 200 V for 30 min.” left out
The lane was then laid horizontally on top of a 10% SDS-polyacrylamide resolving gel and sealed in place in stacking gel. A single-tooth comb was introduced at one end of the stacking gel to introduce a one-dimensional reduced sample of proinsulin containing cell lysate (which runs as proinsulin monomer). The gel was run at 200 V for 45 mins in Tris-Glycine buffer pH 8.8 with electrotransfer as described above.
as §2

islets = test: Analysis of oxidative stress in islets (CellROX Deep Red, Hoechst 33342); format: cell-based, mouse; conditions: islets after 30 wks HFD, menadione 10 μM, 3 h
Procedure: Analysis of Oxidative Stress: Islets were plated onto CellCarrier™-96 ultra microplates (Perkin Elmer) in phenol red-free RPMI 1640 medium supplemented with 10% FBS, 1% penicillin/streptomycin, 100 μg/ml primocin, 10mM Hepes, and 1 mM sodium pyruvate one day prior to staining. Islets were treated with menadione (AdipoGen Life Science, 10 μM) for 3 h at 37° C. Islets were stained with CellROX® Deep Red reagent (Molecular Probes, C10422, 100 μM) and Hoechst 33342 (Invitrogen, 10 μg/ml) for 1 h at the same time. Islets were washed three times with HBSS and incubated in HBSS for imaging while temperature and CO2 were controlled. […]
Because ER stress is linked with oxidative stress, the inventors tested whether Pdia1 deletion confers increased sensitivity to oxidants by treating islets (isolated after 30 wks of HFD) with the vitamin K analogue menadione, which can render cells susceptible to apoptosis by increasing cytosolic calcium with nuclear condensation. […] In FIG. 21B, quantification of ROS mean intensity is shown. CellROX Deep Red mean intensity (divided by area) was measured by image J software. […] In FIG. 21C, quantification of nuclear mean area (μm^2) measured in Hoechst 33342 stained images by ImageJ software is shown. […] Quantification of the ratio of HMW proinsulin complexes (a) to monomeric proinsulin under reducing conditions is shown in graph (lower). […]

[2] = islets, NEM treatment to alkylate free sulfhydryls

C[C@H]1CCC/C=C/[C@@H]2C[C@H](O)C[C@H]2[C@H](O)/C=C/C(=O)O1 [BFA, brefeldin A]
proinsulin complex formation [1]: significantly increased proinsulin complex formation

C#CCNc1nc(NCCNC(=O)CCl)nc(N(C)CCCCc2ccccc2)n1 [KSC-34]
HMW proinsulin complexes, combination with menadione (mouse pancreatic islets; WT murine islets, KSC-34 3 h then menadione 100 μM 1 h): recapitulated the effect of Pdia1 deletion upon menadione treatment | HMW proinsulin complexes (mouse pancreatic islets; WT murine islets, KSC-34 alone, 3 h): slightly increased HMW complexes

CCN1C(=O)C=CC1=O [N-ethylmaleimide]
HMW proinsulin-containing complexes (mouse pancreatic islets; [2]): slightly increased the HMW proinsulin-containing complexes | disulfide-linked proinsulin oligomers (mouse pancreatic islets; [2]): slightly reduced the disulfide-linked oligomers

CC(C)NCCCn1c(Sc2cc(Cl)cc(Cl)c2)nc2c(N)ncnc21 [PU-WS13]
proinsulin disulfide-linked complex formation triggered by acute loss of BiP (INS1E cells; PU-WS13 20 μM 24 h, SubAB during last 3 h): did not exacerbate the proinsulin disulfide-linked complex formation | proinsulin disulfide-linked complex formation (INS1E cells; PU-WS13 20 μM, 24 h): did not promote proinsulin disulfide-linked complex formation

C[C@@H]1C[C@@H]([C@H](O)CC2CC(=O)NC(=O)C2)C(=O)[C@@H](C)C1 [cycloheximide]
proinsulin complex formation [1]: did not significantly affect the results

CC1=CC(=O)c2ccccc2C1=O [menadione]
ROS (CellROX Deep Red stain) (islets): significantly increased ROS | nuclear size (Hoechst 33342) (islets): promoted nuclear condensation | HMW proinsulin complexes (49-198 kDa), increase by Pdia1 deletion vs WT islets (mouse pancreatic islets; islets after 37 wks HFD, menadione 100 μM, 1 h): this effect was even greater in islets treated with menadione
